Holding throughout (assay type): functional
For assay [1], the system named is Mycobacterium tuberculosis. Briefly: Antibacterial activity against 0.5 ug/ml Mycobacterium tuberculosis H37Rv ATCC 27294 assessed as growth inhibition after 7 days by microtiter plate assay. Conditions: H37Rv ATCC 27294, 168 h.
In assay [2] the test system is Escherichia coli. Briefly: Antibacterial activity against duck Escherichia coli assessed as zone of inhibition at 2 ug/ml. The note with it: read-out: DIZ.
Assay [3] has as its system Staphylococcus aureus. Briefly: Antibacterial activity against Staphylococcus aureus assessed as growth inhibition after 7 days by microtiter plate assay. Conditions: 168 h.
The subject of assay [4] is Salmonella. Briefly: Antibacterial activity against Salmonella assessed as growth inhibition after 7 days by microtiter plate assay. Conditions: 168 h.
The test system of assay [5] is Pseudomonas aeruginosa. Briefly: Antibacterial activity against Pseudomonas aeruginosa assessed as growth inhibition after 7 days by microtiter plate assay. The note with it: 168 h.
Assay [6] deals with Escherichia coli. Kind of assay: Antibacterial activity against Escherichia coli assessed as growth inhibition after 7 days by microtiter plate assay. Conditions: 168 h.
The test system of assay [7] is Salmonella. Kind of assay: Antibacterial activity against Salmonella assessed as zone of inhibition at 2 ug/ml. The note with it: read-out: DIZ.
For assay [8], the system named is Escherichia coli. Briefly: Antibacterial activity against duck Escherichia coli assessed as growth inhibition after 7 days by microtiter plate assay. Conditions: 168 h.
Assay [9] has as its system Mycobacterium tuberculosis. Kind of assay: Antibacterial activity against 1 ug/ml Mycobacterium tuberculosis H37Rv ATCC 27294 assessed as growth inhibition after 7 days by microtiter plate assay. The note with it: H37Rv ATCC 27294, 168 h.
The subject of assay [10] is Staphylococcus aureus. Kind of assay: Antibacterial activity against Staphylococcus aureus assessed as zone of inhibition at 2 ug/ml. Conditions: read-out: DIZ.
The subject of assay [11] is Escherichia coli. Kind of assay: Antibacterial activity against Escherichia coli assessed as zone of inhibition at 2 ug/ml. The note with it: read-out: DIZ.
Assay [12] deals with Pseudomonas aeruginosa. Briefly: Antibacterial activity against Pseudomonas aeruginosa assessed as zone of inhibition at 2 ug/ml. The note with it: read-out: DIZ.
Assay [13] concerns Mycobacterium tuberculosis. Kind of assay: Antibacterial activity against drug-sensitive 1 ug/ml Mycobacterium tuberculosis clinical isolate 753 assessed as growth inhibition after 7 days by microtiter plate assay. Conditions: isolate 753, 168 h.
Assay [14] has as its system Mycobacterium tuberculosis. Briefly: Antibacterial activity against drug-sensitive 1 ug/ml Mycobacterium tuberculosis clinical isolate 760 assessed as growth inhibition after 7 days by microtiter plate assay. Conditions: isolate 760, 168 h.
Assay [15] has as its system Mycobacterium tuberculosis. Briefly: Antibacterial activity against drug-sensitive 1 ug/ml Mycobacterium tuberculosis clinical isolate 758 assessed as growth inhibition after 7 days by microtiter plate assay. Conditions: isolate 758, 168 h.
In assay [16] the test system is Mycobacterium tuberculosis. Briefly: Antibacterial activity against drug-sensitive 1 ug/ml Mycobacterium tuberculosis clinical isolate 821 assessed as growth inhibition after 7 days by microtiter plate assay. Conditions: isolate 821, 168 h.
Assay [17] deals with Mycobacterium tuberculosis. Kind of assay: Antibacterial activity against drug-sensitive 1 ug/ml Mycobacterium tuberculosis clinical isolate 741 assessed as growth inhibition after 7 days by microtiter plate assay. Conditions: isolate 741, 168 h.

The text below walks through data of ChEMBL document CHEMBL3232938, “Design, synthesis, and biological evaluation of dihydroartemisinin-fluoroquinolone conjugates as a novel type of potential antitubercular agents” (2014).

Converted amounts (≈) assume the structure as drawn.

On to `C[C@H]1[C@@H](OC(=O)CCC(=O)NC2CCN(c3c(F)cc4c(=O)c(C(=O)O)cn(C5CC5)c4c3Cl)C2)O[C@@H]2O[C@@]3(C)CC[C@H]4[C@H](C)CC[C@@H]1[C@@]24OO3` (some centres not stated), for which the MIC is 1.37 µM (≈ 1 µg/mL) in [1]; 8 µg/mL (≈ 10.9 µM) in [3]; 16 µg/mL (≈ 21.9 µM) in assay [4]; 16 µg/mL (≈ 21.9 µM) in [5]; 8 µg/mL (≈ 10.9 µM) in assay [6]; 16 µg/mL (≈ 21.9 µM) in [8]. The MIC in assay [9] stood at 2.73 µM (≈ 2 µg/mL). The zone of inhibition at 2 µg/mL is below 5 mm in assay [2]; 10 mm in [7]; below 5 mm in [10]; 9 mm in [11]; below 5 mm in [12].

For `C[C@H]1[C@@H](OC(=O)CCC(=O)N2CCN(c3cc4c(cc3F)c(=O)c(C(=O)O)cn4C3CC3)CC2)O[C@@H]2O[C@@]3(C)CC[C@H]4[C@H](C)CC[C@@H]1[C@@]24OO3`, the MIC in assay [1] is 2.07 µM (≈ 1.44 µg/mL); in [3], 16 µg/mL (≈ 22.9 µM); in assay [4] it was 16 µg/mL (≈ 22.9 µM); in assay [5], 16 µg/mL (≈ 22.9 µM); in [6], 16 µg/mL (≈ 22.9 µM); in assay [8], 16 µg/mL (≈ 22.9 µM). In [9], the MIC came out at 2.07 µM (≈ 1.44 µg/mL). The zone of inhibition at 2 µg/mL in assay [2] was below 5 mm; in assay [7], below 5 mm; in assay [10] it was below 5 mm; in assay [11] it was 9 mm; in assay [12], below 5 mm.

For `CCn1cc(C(=O)O)c(=O)c2cc(F)c(N3CCN(C(=O)CCC(=O)O[C@H]4O[C@@H]5O[C@@]6(C)CC[C@H]7[C@H](C)CC[C@@H]([C@H]4C)[C@@]57OO6)CC3)cc21`, the MIC in assay [1] was above 5.83 µM; in [3], 16 µg/mL (≈ 23.3 µM); in assay [4], 16 µg/mL (≈ 23.3 µM); in [5], 16 µg/mL (≈ 23.3 µM); in assay [6], 16 µg/mL (≈ 23.3 µM); in assay [8] it was 16 µg/mL (≈ 23.3 µM). The MIC in assay [9] is above 5.83 µM. The zone of inhibition at 2 µg/mL is below 5 mm in assay [2]; below 5 mm in assay [7]; below 5 mm in assay [10]; 6 mm in assay [11]; below 5 mm in assay [12].

On to `C[C@H]1[C@@H](OC(=O)CCC(=O)N2CCN(c3cc4c(cc3F)c(=O)c(C(=O)O)cn4-c3ccc(F)cc3)CC2)O[C@@H]2O[C@@]3(C)CC[C@H]4[C@H](C)CC[C@@H]1[C@@]24OO3`, for which the MIC is above 5.32 µM in assay [1]; 8 µg/mL (≈ 10.6 µM) in assay [3]; 16 µg/mL (≈ 21.3 µM) in assay [4]; 16 µg/mL (≈ 21.3 µM) in assay [5]; 16 µg/mL (≈ 21.3 µM) in assay [6]; 8 µg/mL (≈ 10.6 µM) in assay [8]. Also, the MIC in assay [9] is above 5.32 µM. Further, the zone of inhibition at 2 µg/mL in [2], in assay [7], in [10], in [11] and in assay [12] was below 5 mm each time.

On to `C[C@H]1[C@@H](OCCCNC2CCN(c3c(F)cc4c(=O)c(C(=O)O)cn(C5CC5)c4c3Cl)C2)O[C@@H]2O[C@@]3(C)CC[C@H]4[C@H](C)CC[C@@H]1[C@@]24OO3` (some centres not stated), for which the MIC in assay [1] was 0.181 µM (≈ 0.125 µg/mL); in [13], 0.125 µg/mL (≈ 0.181 µM); in assay [3], 16 µg/mL (≈ 23.2 µM); in assay [4], 16 µg/mL (≈ 23.2 µM); in assay [5] it was 8 µg/mL (≈ 11.6 µM); in assay [6] it was 8 µg/mL (≈ 11.6 µM). The MIC in assay [14] was found to be 0.125 µg/mL (≈ 0.181 µM); in [8], 8 µg/mL (≈ 11.6 µM); in assay [15], 0.125 µg/mL (≈ 0.181 µM); in [9], 0.181 µM (≈ 0.125 µg/mL); in assay [16], 1 µg/mL (≈ 1.45 µM); in assay [17], 0.125 µg/mL (≈ 0.181 µM). For the same molecule, the zone of inhibition at 2 µg/mL in [2] was below 5 mm; in assay [7], 10 mm; in assay [10] it was below 5 mm; in [11] it was 7 mm; in assay [12] it was below 5 mm.

On to `C[C@H]1[C@@H](OCCCN2CCN(c3cc4c(cc3F)c(=O)c(C(=O)O)cn4C3CC3)CC2)O[C@@H]2O[C@@]3(C)CC[C@H]4[C@H](C)CC[C@@H]1[C@@]24OO3`, for which the MIC in assay [1] was above 3.05 µM; in [3], 8 µg/mL (≈ 12.2 µM); in assay [4], 16 µg/mL (≈ 24.4 µM); in assay [5], 16 µg/mL (≈ 24.4 µM); in assay [6], 16 µg/mL (≈ 24.4 µM); in assay [8], 16 µg/mL (≈ 24.4 µM). In addition, the MIC in assay [9] is above 3.05 µM. The zone of inhibition at 2 µg/mL in assay [2], in assay [7], in [10], in assay [11] and in assay [12] was below 5 mm each time.

What is called MIC is the smallest concentration in the dilution series that meets the test's criterion for growth inhibition.
